Measured values published in patent US5109024A, “Polyamine derivatives as antineoplastic agents” (Merrell Dow Pharmaceuticals Inc., priority 1991, dated 1992).
Structures can show the parent of a compound that is named as a salt. Where two headings read alike, the source gives them in different places.

What was measured:
L1210 leukemia [1] = assay: animal or person; format: in vivo, mice (BDFl male); settings: Mus musculus, L1210, ip, 10 mg/Kg/day, read-out: % T/C (mean survival time treated/mean survival time control ×100)
Protocol: The following study of the antitumor activity of the compounds of formula (I) against L1210 leukemia illustrates this aspect of the present invention.
Groups of 6 mice (BDFl male) were inoculated i.p. with 10^5 L1210 leukemia cells on day 0. Test compounds or vehicle (Control group) were administered at the indicated doses starting on day 1 and continuing through day 5 or 9. Relative survival time was determined and expressed as % T/C (mean survival time treated/mean survival time control ×100). Presence or absence of delayed toxicity was determined by an examination o the animal's external appearance and behavior during the study. For example, an emaciated condition is a key indication of delayed toxicity in these studies.

L1210 leukemia [2] = settings: 6.25 mg/Kg × 4 doses per day, days 3 thru 7, n=6, Edwards et al., cited from earlier work
[3] = tested on: MCA-38 colon adenocarcinoma cells; assay: Experimental Murine Liver Metastasis (MCA-38 colon adenocarcinoma cells injected intrasplenically); format: in vivo, C57BL/6 mice; settings: i.p., day 14; for Liver Metastasis No. foci ± S.E.: n = 6, p < 0.001, control 220.6 ± 22.2
Protocol: C57BL/6 mice were injected intrasplenically on day 0 with MCA-38 colon adenocarcinoma cells (1×10^5) so as to induce hepatic metastasis. Liver metastatic foci were determined as described by Bowlin et al. [Cancer Res. 50, 5460 (1990)]. Briefly, injected animals were randomly allocated to one of three treatment groups, 6 animals per group, and test compound or vehicle (Control) was administered i.p. at the doses and times indicated in Table 3. Liver metastatic foci were determined on day 14.

L1210 leukemia [4] = assay: Curative Effect Against Advanced L1210 Leukemia (survival, cures); format: in vivo, mice (BDFl male); settings: for Cured (mice surviving beyond day 45) / Survival in days (Mean ± S.E.): n=5
Protocol: In an additional study, groups of 5 mice (BDFl male) were inoculated i.p. with 10^5 L1210 leukemia cells on day 0. N,N'-bis[3-(ethylamino)propyl]-1,7-diaminoheptane or vehicle (Control group) were administered at the indicated doses and on the indicated days. […] In a similar study, N,N'-bis[3-(amino)propyl]-1,8-diaminooctane, administered at a dose of […] on days 3 through 7, provided a %T/C of 350 but no cures in 6 animals [Edwards et al., J. Med. Chem. 33, 1369 (1990), See Table II infra].

[5] = tested on: 3LL (Lewis lung) carcinoma cells; assay: Experimental Murine Lung Metastasis (3LL Lewis lung carcinoma cells injected into footpad); format: in vivo, C57BL/6 mice
Protocol: C57BL/6 mice were injected into the footpad on day 0 with 3LL (Lewis lung) carcinoma cells (1×10^6) so as to induce lung metastasis. Lung metastatic foci were determined as described by Sunkara et al. [J.Biological Response Modifiers 8, 170 (1989)]. Briefly, injected animals were randomly allocated to one of two treatment groups, 6 animals per group, and test compound or vehicle (Control) was administered i.p. at the doses and times indicated in Table 4. Lung metastatic foci were determined on day 18.

[6] = 5 mg/Kg × 4 doses per day, days 3, 4, 5
[7] = 5 mg/Kg × 4 doses per day, days 3, 4
[8] = 10 mg/Kg × 4 doses per day, days 3, 4

SMILES: NCCCNCCCCCCCCNCCCN [Compound 26547, N,N'-bis[3-(amino)propyl]-1,8-diaminooctane]
- response vs control in vivo at 10 mg/kg (L1210 leukemia [1]; days 1-9): 171%
- % T/C (L1210 leukemia [2]; J. Med. Chem. 33, 1369 (1990)): 350%
- Cured (L1210 leukemia [2]; J. Med. Chem. 33, 1369 (1990)): 0/6
- Cured (L1210 leukemia [2]; J. Med. Chem. 33, 1369 (1990), listed as N,N'-bis[3-(amino)propyl]-1,8-diaminooctane): no cures
- Delayed toxicity (L1210 leukemia [2]): exhibited delayed toxicity

SMILES: CNCCCNCCCCCCCCNCCCNC [Compound 27259, N,N'-Bis(3-(methylamino)propyl)-1,8-octanediamine tetrahydrochloride]
- response vs control in vivo at 10 mg/kg (L1210 leukemia [1]; days 1-9): 172%

SMILES: CC(N)CCNCCCCCCCNCCC(C)N (centres unmarked) [Compound 28516, N,N'-bis[3-(amino)butyl]-1,7-diaminoheptane, reference compound]
- response vs control in vivo at 10 mg/kg (L1210 leukemia [1]; days 1-5): 200%

SMILES: CNC(C)CCNCCCCCCCNCCC(C)NC (centres unmarked) [Compound 101060, N,N'-Bis[3-(methylamino)butyl]-1,7-diaminoheptane tetrahydrochloride]
- response vs control in vivo at 10 mg/kg (L1210 leukemia [1]; days 1-5): 180%

SMILES: CNCC(C)CNCCCCCCCNCC(C)CNC (centres unmarked) [Compound 28600, N,N'-bis[3-(methylamino)-2-(methyl)propyl]-1,7-diaminoheptane]
- response vs control in vivo at 10 mg/kg (L1210 leukemia [1]; days 1-5): 132%

SMILES: CCNCCCNCCCCCCCCNCCCNCC [Compound 27393, N,N'-Bis(3-(ethylamino)propyl)-1,8-octanediamine tetrahydrochloride]
- response vs control in vivo at 10 mg/kg (L1210 leukemia [1]; days 1-9): 112%

SMILES: CNCCCNCCCCCCCNCCCNC [Compound 28249, N,N'-bis[3-(methylamino)propyl]-1,7-diaminoheptane]
- response vs control in vivo at 10 mg/kg (L1210 leukemia [1]; days 1-5): 110%

SMILES: CCNCCCNCCCCCCCNCCCNCC [Compound 28314, N,N'-Bis[3-(ethylamino)propyl]-1,7-heptanediamine]
- Liver Metastasis % Inhibition ([3]; days 1-5, 5 mg/Kg): 87%
- Liver Metastasis No. foci ± S.E. ([3]; days 1-5, 5 mg/Kg): 29.2 ± 7.7 foci
- Liver Metastasis % Inhibition ([3]; days 3-8, 5 mg/Kg): 72%
- Liver Metastasis No. foci ± S.E. ([3]; days 3-8, 5 mg/Kg): 62.3 ± 17.5 foci
- Cured (mice surviving beyond day 45) (L1210 leukemia [4]; [6]): 5/5
- Survival in days (Mean ± S.E.) (L1210 leukemia [4]; [6]): > 45 days
- Cured (mice surviving beyond day 45) (L1210 leukemia [4]; [7]): 0/5
- Survival in days (Mean ± S.E.) (L1210 leukemia [4]; [7]): 16.0 ± 4.0 days
- Cured (mice surviving beyond day 45) (L1210 leukemia [4]; [8]): 5/5
- Survival in days (Mean ± S.E.) (L1210 leukemia [4]; [8]): > 45 days
- Curative effect against L1210 leukemia in vivo (L1210 leukemia [4]; at 20 and 40 mg/Kg/day): effective in providing a curative effect
- Lung Metastasis % Inhibition ([5]; days 1-5, 10 mg/Kg, i.p., day 18): 100%
- Lung Metastasis No. foci ± S.E. ([5]; days 1-5, 10 mg/Kg, i.p., day 18, n = 6, control 21.3 ± 11.5): 0 foci
- antimetastatic effect in inhibiting lung metastasis ([5]; results as presented in Table 4): antimetastatic effect
- response vs control in vivo at 10 mg/kg (L1210 leukemia [1]; days 1-5): 200%
